In article PMC9697349, “Mouse Pharmacokinetics and In Vitro Metabolism of SH-11037 and SH-11008, Synthetic Homoisoflavonoids for Retinal Neovascularization” (Pharmaceutics, 2022):

Columns and labels:
[1] = Mouse pharmacokinetics, single p.o. dose; format: in vivo; details: mice
Protocol: Pharmacokinetic studies were performed with male ICR mice (8 weeks old, 30~35 g) purchased from Koatech Co. (Kyunggi, Korea) as reported previously. Test compounds were dissolved at 1 mg/mL in DMA/Tween 80/20% aqueous HPβCD (10/10/80 vol%) to prepare the dosing solutions. SH-11037 was administered by oral (p.o.) gavage at a dose of 10 mg/kg and a dose volume of 10 mL/kg (equimolar to 6 mg/kg of SH-11008) or intravenously (i.v.) via tail vein injection at a dose of 5 mg/kg and a dose volume of 5 mL/kg (equimolar to 3 mg/kg of SH-11008), respectively. […] Plasma samples were analyzed as described below in Section 2.6.1.
Calibration standards and quality control (QC) samples were prepared by spiking 15 μL of blank plasma with 5 μL of analyte working solution prepared in 50 vol% aqueous CH3CN. […] The lower limit of quantitation of SH-11037 and SH-11008 were 0.24 and 0.48 ng/mL, respectively, with a signal-to-noise ratio based on root mean square noise > 10. […] The precision and accuracy of the analytical method were evaluated with the QC samples prepared in triplicate at 5, 250, and 400 ng/mL for both of SH-11037 and SH-11008: the coefficient of variation (%CV) and the relative error (%RE) were in the ranges of −21.23~5.72% and 1.47~12.30% for SH-11037 and −22.85~4.96% and 1.2~13.8% for SH-11008, respectively. […]

[2] = Stability of SH-11037 in 0.1 M phosphate buffer (pH 7.4); format: physicochemical
Protocol: (§1) SH-11037 (1 μM) was incubated in triplicate in 0.1 M phosphate buffer (pH 7.4) or in mouse, dog, and human plasma to investigate its stability. SH-11037 (40 μM) in 50 vol% aqueous CH3CN was mixed with 0.1 M phosphate buffer (pH 7.4) or plasma diluted 3-fold with 0.1 M phosphate buffer (pH 7.4) to a final volume of 160 μL and a final concentration of 1 μM. The resulting solutions were then incubated at 37 °C in a shaking water bath. The incubations were terminated at selected times by adding 160 µL of ice-cold CH3CN containing glipizide (500 ng/mL) as the internal standard (IS). The resulting mixture was vortexed, sonicated, and centrifuged at 3000× g for 20 min. Aliquots of the supernatant were subjected to LC-MS/MS analysis described below in Section 2.6.2.
(§2) The LC-MS/MS system consisted of Agilent 1290 Infinity HPLC system and Agilent 6530 Accurate-Mass Quadrupole Time-of-Flight (Q-TOF) mass spectrometer equipped with dual AJS ESI ion source (Agilent Technologies Korea, Seoul, Korea). Chromatographic separation was performed on an Agilent Eclipse Plus C18 column (2.1 × 100 mm, 3.5 μm) with a Phenomenex Security Guard C18 guard column (4 × 20 mm) maintained at 40 °C. The mobile phase consisted of 0.1% formic acid in deionized water (A) and 0.1% formic acid in CH3CN (B): 0~2 min 5% B, 2~7 min to 95% B, and 7~10 min 95% B. Total run time including a 5 min equilibration time was 15 min. […]

[3] = Stability of SH-11037 in dog plasma; format: in vitro ADME; details: beagle, pH 7.4, SH-11037 1 µM, 37 °C, read-out: half-life (t1/2) of hydrolysis to SH-11008
Protocol: as §1, §2

Row | Structure (SMILES) | plasma levels of SH-11008 ([1]; after single p.o. dose of SH-11008 6 mg/kg, BQL) [ng/mL] | plasma level of SH-11037 ([1]; throughout the time course after single p.o. dose of SH-11037 10 mg/kg) | SH-11037 remaining ([2]; 1 µM, 0.1 M phosphate buffer pH 7.4, 1 h incubation at 37 °C) [%] | SH-11008 formation in buffer ([2]; SH-11037 1 µM, pH 7.4 buffer, 1 h at 37 °C) | half-life at 1 µM [3] [min]
1 | COc1ccc(CC2COc3cc(OC)c(OC)c(OC)c3C2=O)cc1O (centres unmarked) [SH-11008] | < 0.48 |  |  |  | 
2 | COc1ccc(CC2COc3cc(OC)c(OC)c(OC)c3C2=O)cc1OC(=O)[C@H](Cc1ccccc1)NC(=O)OC(C)(C)C (some centres unmarked) [SH-11037] |  | BQL | ~100 | not detected | 69.1
